Measured values reported in patent US12497403B2, “Factor XIa inhibitors” (Merck Sharp & Dohme LLC, priority 2021, dated 2025).
Converted amounts (≈) assume the structure as drawn. Read-outs that look alike come from different tables or passages of the source.

Tests used:
Human plasma kallikrein = molecular target: T1, Human plasma kallikrein (Homo sapiens, UniProt P03952); test: Kallikrein assay (plasma kallikrein); type: biochemical; settings: purified Human plasma kallikrein 0.5 nM, Acetyl-K-P-R-AFC substrate, pH 7.4; read-out: pKal IC50
T1 construct: yields a heavy chain (371 amino acids) and a light chain (248 amino acids); purchased Enzyme Research Laboratories
T1 sequence (P03952 391-638 limits assumed): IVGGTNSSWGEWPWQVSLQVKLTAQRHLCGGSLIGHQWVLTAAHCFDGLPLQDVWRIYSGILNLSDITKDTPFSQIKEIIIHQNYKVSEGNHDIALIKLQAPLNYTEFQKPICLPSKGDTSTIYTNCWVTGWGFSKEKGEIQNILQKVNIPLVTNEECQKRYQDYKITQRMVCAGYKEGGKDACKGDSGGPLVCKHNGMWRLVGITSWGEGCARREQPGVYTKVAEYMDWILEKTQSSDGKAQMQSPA
T1 sequence (P03952 20-390 partner limits assumed): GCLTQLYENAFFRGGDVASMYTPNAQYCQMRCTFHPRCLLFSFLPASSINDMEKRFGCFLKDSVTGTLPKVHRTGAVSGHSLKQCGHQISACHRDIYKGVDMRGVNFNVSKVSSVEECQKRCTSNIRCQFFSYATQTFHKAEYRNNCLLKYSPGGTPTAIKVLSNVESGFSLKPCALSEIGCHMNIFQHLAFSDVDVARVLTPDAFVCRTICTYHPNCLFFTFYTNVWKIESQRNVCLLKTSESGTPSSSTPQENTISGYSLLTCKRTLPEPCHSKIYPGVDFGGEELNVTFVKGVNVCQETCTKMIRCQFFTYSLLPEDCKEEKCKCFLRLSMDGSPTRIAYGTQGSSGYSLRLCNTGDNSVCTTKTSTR
Procedure: (§1) The effectiveness of a compound of the present invention as an inhibitor of Kallikrein can be determined using a relevant purified serine protease, and an appropriate synthetic substrate. The rate of hydrolysis of the chromogenic or fluorogenic substrate by the relevant serine protease was measured both in the absence and presence of compounds of the present invention. Assays were conducted at room temperature or at 37° C. […] A decrease in the rate of fluorescence change in the presence of inhibitor is indicative of enzyme inhibition. Such methods are known to one skilled in the art. The results of this assay are expressed as the half-maximal inhibitory concentrations (IC50), or the inhibitory constant. Ki.
Kallikrein determinations were made in 50 mM HEPES buffer at pH 7.4 containing 150 mM NaCl, 5 mM CaCl2, and 0.1% PEG 8000 (polyethylene glycol; Fisher Scientific). Determinations were made using purified Human plasma kallikrein at a final concentration of 0.5 nM (Enzyme Research Laboratories) and the synthetic substrate. Acetyl-K-P-R-AFC (Sigma # C6608) at a concentration of […].
Activity assays were performed by diluting a stock solution of substrate at least tenfold to a final concentration≤ 0.2 Km into a solution containing enzyme or enzyme equilibrated with inhibitor. Times required to achieve equilibration between enzyme and inhibitor were determined in control experiments. The reactions were performed under linear progress curve conditions and fluorescence increase measured at 405 Ex/510 Em nm. Values were converted to percent inhibition of the control reaction (after subtracting 100% Inhibition value). IC50 was determined by inflection point from a four parameter logistic curve fit. Ki was calculated using the Cheng Prusoff equation. Ki=IC50/(1+([S]/Km)).

[1] = High-throughput (HT) solubility determination; type: physicochemical; settings: kinetic from dmso stock
Procedure: The chromatographic system consists of an Agilent 1290 UPLC/DAD system and ChemStation software, both from Agilent Technologies, USA. The separations are carried out on a Supelco Ascentis Express C18, 30 mm×3.0 mm I.D., 2.7 μm HPLC column. The mobile phase consists of Potassium phosphate buffered at pH 7 (mobile phase A) and acetonitrile (mobile phase B). The column oven temperature is set to 30° C. and the UPLC analysis consists of a gradient. The injection volume is 2 μL and the spectrophotometric detection is set to 215 and 238 nm.
A 10 mM stock solution of the compound in DMSO is supplied for analysis. 2.5 μL of stock solution (10 mM) was diluted into 247.5 μL of organic co-solvents (10% MeCN/80% MeOH/10% DMSO, v/v/v) to create a standard solution of 100 μM. To create the solubility solutions, 4.1 μL of 10 mM DMSO stock solution was diluted into […] of phosphate buffered saline (PBS) (pH 7) solution. A second 4.1 μL aliquot of 10 mM DMSO stock solution was added to 196 μL of PBS (pH 2) solution. A third 4.1 uL aliquot of 10 mM DMSO stock solution was added to 196 uL of FaSSIF (pH 6.5) solution. […] The equilibrated solubility solutions were filtered by centrifugation using a filter (0.45 μm, polypropylene). 50 μL each of the 100 μM standard solution and the filtered equilibrated solubility solutions were placed into a 384 well plate, and the plate was subsequently heat sealed.
Each standard and solubility solution was analyzed by UPLC/DAD. The solubility value was calculated by the following equation: Solubility=(Peak area of sample/Peak area of standard) (Standard concentration)

human Factor XIa = human Factor XIa (Homo sapiens, UniProt P03951); test: Factor XIa assay; type: biochemical; settings: human Factor XIa 0.04 nM, GPR-AFC substrate, 25° C., pH 7.4; read-out: FXIa IC50
human Factor XIa, sequence (P03951 388-625 limits assumed): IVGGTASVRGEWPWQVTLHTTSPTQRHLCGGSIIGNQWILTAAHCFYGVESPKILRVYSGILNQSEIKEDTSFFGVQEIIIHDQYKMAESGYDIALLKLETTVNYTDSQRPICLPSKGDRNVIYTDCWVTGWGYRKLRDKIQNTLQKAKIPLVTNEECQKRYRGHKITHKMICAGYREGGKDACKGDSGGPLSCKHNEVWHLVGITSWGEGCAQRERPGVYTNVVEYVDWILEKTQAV
human Factor XIa, sequence (P03951 19-387 partner limits assumed): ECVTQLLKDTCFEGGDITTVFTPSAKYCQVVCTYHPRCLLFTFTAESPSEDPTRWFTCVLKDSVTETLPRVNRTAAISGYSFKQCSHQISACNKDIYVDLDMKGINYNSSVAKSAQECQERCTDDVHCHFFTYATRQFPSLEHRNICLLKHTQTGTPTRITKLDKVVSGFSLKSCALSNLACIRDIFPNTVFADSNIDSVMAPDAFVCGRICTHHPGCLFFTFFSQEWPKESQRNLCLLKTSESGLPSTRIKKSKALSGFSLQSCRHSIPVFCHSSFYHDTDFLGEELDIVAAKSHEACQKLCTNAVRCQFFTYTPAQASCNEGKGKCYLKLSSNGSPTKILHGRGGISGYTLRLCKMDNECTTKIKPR
Procedure: as §1, with “Coagulation Factor XIa” for “Kallikrein”, “constant,” for “constant.”
Compounds were pre-incubated for 30 minutes at 25° C. with human (0.04 nM) Factor XIa in 50 mM HEPES buffer with 150 mM sodium chloride, 5 mM calcium chloride, 0.1% PEG 8000, pH 7.4. Factor XIa enzymatic activity was determined by addition of the substrate glycine-proline-arginine-7-amido-4-trifluoromethylcoumarin (GPR-AFC) and measurement of the fluorescence at 400/505 nm after a 60 minute incubation at 25° C. The % inhibition for each data point was calculated from the data and analyzed using the log (inhibitor) vs. response four parameters equation to determine the half-maximal inhibitory concentrations (IC50). The IC50 were converted to equilibrium inhibitory constants (Ki) using the Cheng-Prusoff equation.

[2] = FaSSIF pH 6.5, shaken 24 hours at 25° C., read-out: pH 6.5 (FaSSIF) solubility
[3] = phosphate buffered saline (PBS) pH 2, aqueous buffer, PBS pH 2, shaken 24 hours at 25° C., read-out: pH 2 solubility

SMILES	IC50 (Human plasma kallikrein)	solubility kinetic at 24 h [1, 2]	solubility kinetic at 24 h [1, 3]	IC50 (human Factor XIa)
COC(=O)Nc1ccc2c(c1)NC(=O)C(C)(C)CCC[C@H](c1ccc(-c3cc(F)ccc3OC(F)F)c[n+]1[O-])c1nc-2c(C(=O)O)[nH]1.N (single isomer, unassigned) [Example 7]	4.4 nM	170 µM	145 µM	0.16 nM
COC(=O)Nc1ccc2c(c1)NC(=O)C(C)(C)CCC[C@H](c1ccc(-c3cc(F)ccc3-n3cc(C(F)(F)F)cn3)c[n+]1[O-])c1nc-2c(C(=O)O)[nH]1 [Example 8, (R,Z)-2-(1^5-carboxy-2^4-((methoxycarbonyl)amino)-5,5-dimethyl-4-oxo-1^1H-3-aza-1(4,2)-imidazola-2(1,2)-benzenacyclononaphane-9-yl)-5-(5-fluoro-2-(4-(trifluoromethyl)-1H -pyrazol-1-yl)phenyl)pyridine 1-oxide]	544 nM	141 µM (≈ 102 µg/mL)	154 µM (≈ 111 µg/mL)	0.39 nM
COC(=O)Nc1ccc2c(c1)NC(=O)C(C)(C)CCC[C@H](c1ccc(-c3cccc(Cl)c3F)c[n+]1[O-])c1nc-2c(C(=O)O)[nH]1 [Example 9, (R,Z)-2-(1^5-carboxy-2^4-((methoxycarbonyl)amino)-5,5-dimethyl-4-oxo-1^1H-3-aza-1(4,2)-imidazola-2(1,2)-benzenacyclononaphane-9-yl)-5-(3-chloro-2-fluorophenyl)pyridine 1-oxide]	1.1 nM	138 µM (≈ 85.8 µg/mL)	125 µM (≈ 77.8 µg/mL)	0.25 nM
